The compound `O=C1OC(c2ccccc2)=N/C1=C\c1ccc(/C=C2/N=C(c3ccccc3)OC2=O)cc1` displayed a melting point of 271 °C. Then `O=P(O)(O)CCCCP(=O)(O)O`, with 219 to 221 °C; and `Cc1c(-c2ccccc2)sc2ncnc(O)c12`, with 247 to 249 °C; and `Cc1cc2cc([N+](=O)[O-])ccc2[nH]1`, with 173 to 178 °C. For `CCOC(CN1C(=O)c2ccccc2C1=O)OCC`, the melting point is 72 to 74 °C. With `CC(=O)NC(=O)NC(C)=O`, the melting point stood at 154 °C. `CC(C)(C)c1ccc(CCOc2ncnc3ccccc23)cc1` had a melting point of 80.5 °C.

Compound `Cc1ccc(C(=O)O)cc1I` had a melting point of 208 °C.

Turning to `NC(CS(=O)(=O)c1ccc(Cl)cc1)=NO`, the melting point was in the range of 202 to 205 °C. Take `CC12CCC(=O)CC1CCC1C2CCC2(C)C1CCC21OCCO1` (centres undefined): the melting point lay within 192 to 196 °C. On to `Cc1cc(C)nc(NN)n1`, for which the melting point was 166 to 167 °C. With `O=C(O)C1CCCC1C(=O)O` (centres undefined) the figure was 160 °C. `OCc1ccc(N2CCCC2)nc1` had a melting point of 61 to 62 °C. Then `CC(C)(C)CCO`, with -60 °C; and `OC1OCCOC1O` (centres undefined), with 101 °C; and `Cn1c(=O)c(C2=NNC(=O)C2=NNc2ccc(Br)cc2)c(O)c2ccccc21`, with 260 °C. Take `NNc1nc(N)nc(C23CC4CC(CC(C4)C2)C3)n1`: the melting point is 265 to 267 °C. Then `CCCCCCCCOC(=O)CCCCCCCCC(=O)OCCCCCCCC`, with -67 °C.

In turn, `Nc1nc(-c2ccc(O)cc2)cs1` registered a melting point of 206 to 208 °C. With `CCC(=O)c1ccc(O)cc1`, the melting point is 150 °C.

The compound `CCOC(=O)c1nnc(N)o1` registered a melting point of 199 to 201 °C.

For the compound `CC(C)(C)OC(=O)N1c2ccccc2CC1C(=O)O` (centres undefined), the melting point fell in the range of 121 to 122 °C. For `Cn1cnc([N+](=O)[O-])c1Cl`, the melting point lay within 146 to 150 °C. In turn, `N#CCc1c(Cl)cccc1Cl` had a melting point of 76 °C. The compound `O=[N+]([O-])c1ccc(-c2nnc3n2CN(c2ccccc2[N+](=O)[O-])CS3)cc1` had a melting point of 183 to 185 °C. With `O=C1OC2(c3cc(Cl)c(O)cc3Oc3cc(O)c(Cl)cc32)c2ccccc21` the figure was 280 °C; with `CC(C)[C@H](N)P(=O)(O)O`, 270 °C.

For the compound `CC(=O)c1ccc(Cc2ccccc2)cc1`, the melting point lay within 38 to 40 °C.

As to `OCC(F)(F)C(F)(F)C(F)(F)C(F)(F)C(F)(F)C(F)(F)C(F)(F)C(F)(F)CO`, the melting point fell in the range of 132 to 137 °C. As to `O=C1c2ccccc2CC2c3ccccc3C=CN12` (centres undefined), the melting point came out at 128 °C. Then `COC(=O)C=Cc1cccc(C=CC(=O)OC)c1`, with 132 °C. For the compound `CCCCCC#CC(=O)O`, the melting point was 4 °C. For the compound `CC1CCCC(C)N1C(=O)COC(=O)c1ccccc1` (centres undefined), the melting point worked out at 118 °C.

Compound `CC(C)OC(=O)C1(S(=O)(=O)c2ccc([N+](=O)[O-])cc2)CCC1` showed a melting point of 65.5 °C. Compound `CC1=C(C(=O)OCc2ccccc2)C(c2ccco2)NC(=S)N1` (centres undefined) had a melting point of 164 °C. `O=C(O)CCCc1ccc(Br)cc1` had a melting point of 67 to 69 °C. Regarding `O=C(O)[C@@H]1Cc2ccccc2CN1C(=O)OCC1c2ccccc2-c2ccccc21`, the melting point was in the range of 146 to 149 °C. The compound `CC1=CC(=O)C(C(C)C)=CC1=O` displayed a melting point of 45.5 °C.

`C/C(Cl)=C/C(=O)O` displayed a melting point of 61 °C. The compound `CCCCCCCC/C=C\CCCCCCCCCCCC(=O)O` registered a melting point of 33.5 °C. `CC(=O)Oc1ccccc1C(=O)Oc1ccccc1C(=O)O` came in with a melting point of 159 °C. Take `Nc1ccc(O)c2c1C(=O)c1ccccc1C2=O`: the melting point was 216 °C. `Cc1cc(C)cc(CC(=O)O)c1` gave a melting point of 101 °C. With `Cc1n[nH]c2c1c(=O)n(-c1ccccc1)c1ccccc21` the figure was 162 to 163 °C.

Values taken from a melting point compilation (Tetko et al.).
